In patent US11040959B2, “Diprovocims: a new and potent class of TLR agonists” (The Scripps Research Institute, priority 2016, dated 2021):
Like-named read-outs stand apart in the source and are kept apart here.

Legend:
[1] = tested on: differentiated human THP-1 cells; assay: stimulated release of TNF-α from differentiated human THP-1 cells (ELISA, dose-response); type: cell-based; conditions: for EC50: Homo sapiens
How it was run: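 Human THP-1 cells were PMA-differentiated toward macrophages, and stimulated TNF-α release was measured by ELISA. EC50 values were taken from dose-response curves.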

mouse macrophages = assay: stimulated release of TNF-α from mouse macrophages; type: cell-based; conditions: for EC50: Macrophage
How it was run: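 EC50 derived from dose-response curves for stimulated TNF-α release from mouse macrophages.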

[2] = THP-1, table of 125-132 (one lipid side chain, R and S), human THP-1 cells, read-out: EC50 (nM) (THP-1)
[3] = table of 125-132 (one lipid side chain, R and S), mouse macrophages, read-out: EC50 (nM) (mouse)
[4] = THP-1, table of 133-139 (two lipid side chains), human THP-1 cells, read-out: EC50 (nM) (THP-1)
[5] = table of 133-139 (two lipid side chains), mouse macrophages, read-out: EC50 (nM) (mouse)
[6] = THP-1, table of 140-146 (four lipid side chains), human THP-1 cells, read-out: EC50 (nM) (THP-1)
[7] = table of 140-146 (four lipid side chains), mouse macrophages, read-out: EC50 (nM) (mouse)

Row | SMILES | EC50 [1, 2] [nM] | EC50 (mouse macrophages; [3]) [nM] | EC50 [1, 4] [nM] | EC50 (mouse macrophages; [5]) [nM] | EC50 [1, 6] [nM] | EC50 (mouse macrophages; [7]) [nM] | further results
1 | CCCCCCCCCCCCCCNC(=O)[C@@H]1CCN(C(=O)c2ccc(C(=O)N3C[C@@H](C(=O)N[C@H]4C[C@@H]4c4ccccc4)[C@H](C(=O)N[C@H]4C[C@@H]4c4ccccc4)C3)cc2)C1 [Compound 126, (3S,4S)—N^3,N^4-Bis((1S,2R)-2-phenylcyclopropyl)-1-(4-((R)-3-(tetradecylcarbamoyl)pyrrolidine-1-carbonyl)benzoyl)pyrrolidine-3,4-dicarboxamide] | 2 | 260 | – | – | – | – | –
2 | CCCCCCCCCCCCNC(=O)[C@@H]1CCN(C(=O)c2ccc(C(=O)N3C[C@@H](C(=O)N[C@H]4C[C@@H]4c4ccccc4)[C@H](C(=O)N[C@H]4C[C@@H]4c4ccccc4)C3)cc2)C1 [Compound 127, (3S,4S)-1-(4-((R)-3-(Dodecylcarbamoyl)-pyrrolidine-1-carbonyl)benzoyl)—N^3,N^4-bis((1S,2R)-2-phenylcyclopropyl)pyrrolidine-3,4-dicarboxamide] | 9 | 700 | – | – | – | – | –
3 | CCCCCCCCCCNC(=O)[C@@H]1CCN(C(=O)c2ccc(C(=O)N3C[C@@H](C(=O)N[C@H]4C[C@@H]4c4ccccc4)[C@H](C(=O)N[C@H]4C[C@@H]4c4ccccc4)C3)cc2)C1 [Compound 128, (3S,4S)-1-(4-((R)-3-(Decylcarbamoyl)pyrrolidine-1-carbonyl)benzoyl)—N^3,N^4-bis((1S,2R)-2-phenyl-cyclopropyl)pyrrolidine-3,4-dicarboxamide] | 210 | 2400 | – | – | – | – | –
4 | CCCCCCCCCCCCCCNC(=O)[C@H]1CCN(C(=O)c2ccc(C(=O)N3C[C@@H](C(=O)N[C@H]4C[C@@H]4c4ccccc4)[C@H](C(=O)N[C@H]4C[C@@H]4c4ccccc4)C3)cc2)C1 [Compound 130, (3S,4S)—N^3,N^4-Bis((1S,2R)-2-phenylcyclopropyl)-1-(4-((S)-3-(tetradecylcarbamoyl)pyrrolidine-1-carbonyl)benzoyl)pyrrolidine-3,4-dicarboxamide] | 4 | 240 | – | – | – | – | –
5 | CCCCCCCCCCCCNC(=O)[C@H]1CCN(C(=O)c2ccc(C(=O)N3C[C@@H](C(=O)N[C@H]4C[C@@H]4c4ccccc4)[C@H](C(=O)N[C@H]4C[C@@H]4c4ccccc4)C3)cc2)C1 [Compound 131, (3S,4S)-1-(4-((S)-3-(Dodecylcarbamoyl)-pyrrolidine-1-carbonyl)benzoyl)—N^3,N^4-bis((1S,2R)-2-phenylcyclopropyl)pyrrolidine-3,4-dicarboxamide] | 4 | 1000 | – | – | – | – | –
6 | CCCCCCCCCCNC(=O)[C@H]1CCN(C(=O)c2ccc(C(=O)N3C[C@@H](C(=O)N[C@H]4C[C@@H]4c4ccccc4)[C@H](C(=O)N[C@H]4C[C@@H]4c4ccccc4)C3)cc2)C1 [Compound 132, (3S,4S)-1-(4-((S)-3-(Decylcarbamoyl)pyrrolidine-1-carbonyl)benzoyl)—N^3,N^4-bis((1S,2R)-2-phenyl-cyclopropyl)pyrrolidine-3,4-dicarboxamide] | 33 | 1800 | – | – | – | – | –
7 | CCCCCCCCCCCCCCCCNC(=O)[C@@H]1CN(C(=O)c2ccc(C(=O)N3C[C@@H](C(=O)N[C@H]4C[C@@H]4c4ccccc4)[C@H](C(=O)N[C@H]4C[C@@H]4c4ccccc4)C3)cc2)C[C@H]1C(=O)NCCCCCCCCCCCCCCCC [Compound 133, (3S,4S)-1-(4-((3S,4S)-3,4-Bis(((1S,2R)-2-phenyl-cyclopropyl)carbamoyl)pyrrolidine-1-carbonyl)-benzoyl)-N^3,N^4-dihexadecylpyrrolidine-3,4-dicarboxamide] | – | – | 2.5 | 1000 | – | – | –
8 | CCCCCCCCCCCCCCNC(=O)[C@@H]1CN(C(=O)c2ccc(C(=O)N3C[C@@H](C(=O)N[C@H]4C[C@@H]4c4ccccc4)[C@H](C(=O)N[C@H]4C[C@@H]4c4ccccc4)C3)cc2)C[C@H]1C(=O)NCCCCCCCCCCCCCC [Compound 134, (3S,4S)-1-(4-((3S,4S)-3,4-Bis(((1S,2R)-2-phenylcyclopropyl)carbamoyl)pyrrolidine-1-carbonyl)benzoyl)-N^3,N^4-ditetradecylpyrrolidine-3,4-dicarboxamide] | – | – | 1.3 | 620 | – | – | –
9 | CCCCCCCCCCCCNC(=O)[C@@H]1CN(C(=O)c2ccc(C(=O)N3C[C@@H](C(=O)N[C@H]4C[C@@H]4c4ccccc4)[C@H](C(=O)N[C@H]4C[C@@H]4c4ccccc4)C3)cc2)C[C@H]1C(=O)NCCCCCCCCCCCC [Compound 135, (3S,4S)-1-(4-((3S,4S)-3,4-Bis(((1S,2R)-2-phenylcyclopropyl)carbamoyl)pyrrolidine-1-carbonyl)benzoyl)-N^3,N^4-didodecylpyrrolidine-3,4-dicarboxamide] | – | – | 1 | 1000 | – | – | –
10 | CCCCCCCCCCNC(=O)[C@@H]1CN(C(=O)c2ccc(C(=O)N3C[C@@H](C(=O)N[C@H]4C[C@@H]4c4ccccc4)[C@H](C(=O)N[C@H]4C[C@@H]4c4ccccc4)C3)cc2)C[C@H]1C(=O)NCCCCCCCCCC [Compound 136, (3S,4S)-1-(4-((3S,4S)-3,4-Bis(((1S,2R)-2-phenylcyclopropyl)carbamoyl)pyrrolidine-1-carbonyl)benzoyl)-N^3,N^4-didecylpyrrolidine-3,4-dicarboxamide] | – | – | 0.28 | 60 | – | – | –

Second part, led by results:

Row | EC50 [1, 2] [nM] | EC50 (mouse macrophages; [3]) [nM] | EC50 [1, 4] [nM] | EC50 (mouse macrophages; [5]) [nM] | EC50 [1, 6] [nM] | EC50 (mouse macrophages; [7]) [nM] | SMILES | further results
11 | – | – | 0.17 | 10 | – | – | CCCCCCCCNC(=O)[C@@H]1CN(C(=O)c2ccc(C(=O)N3C[C@@H](C(=O)N[C@H]4C[C@@H]4c4ccccc4)[C@H](C(=O)N[C@H]4C[C@@H]4c4ccccc4)C3)cc2)C[C@H]1C(=O)NCCCCCCCC [Compound 137, (3S,4S)-1-(4-((3S,4S)-3,4-Bis(((1S,2R)-2-phenylcyclopropyl)carbamoyl)pyrrolidine-1-carbonyl)benzoyl)-N^3,N^4-dioctylpyrrolidine-3,4-dicarboxamide] | –
12 | – | – | 0.18 | 4 | – | – | CCCCCCNC(=O)[C@@H]1CN(C(=O)c2ccc(C(=O)N3C[C@@H](C(=O)N[C@H]4C[C@@H]4c4ccccc4)[C@H](C(=O)N[C@H]4C[C@@H]4c4ccccc4)C3)cc2)C[C@H]1C(=O)NCCCCCC [Compound 138, (3S,4S)-1-(4-((3S,4S)-3,4-Bis(((1S,2R)-2-phenylcyclopropyl)carbamoyl)-pyrrolidine-1-carbonyl)benzoyl)-N^3,N^4-dihexylpyrrolidine-3,4-dicarboxamide] | EC50 ([1]; THP-1, running text, read-out: EC50, stimulated release of TNF-α from differentiated human THP-1 cells): 0.18 nM; fold less active/potent than diprovocim-1 (3) ([1]; human THP-1 cells): 2 fold; potency differential human THP-1 cells versus mouse macrophages ([1]; ratio of mouse to human potency): 20 fold; EC50 (mouse macrophages; Mus musculus, read-out: EC50, stimulated release of TNF-α from mouse macrophages): 4 nM; fold less potent/effective than diprovocim-1 (mouse macrophages; mouse macrophages): 4 fold
13 | – | – | 50 | 360 | – | – | CCCCNC(=O)[C@@H]1CN(C(=O)c2ccc(C(=O)N3C[C@@H](C(=O)N[C@H]4C[C@@H]4c4ccccc4)[C@H](C(=O)N[C@H]4C[C@@H]4c4ccccc4)C3)cc2)C[C@H]1C(=O)NCCCC [Compound 139, (3S,4S)-1-(4-((3S,4S)-3,4-Bis(((1S,2R)-2-phenylcyclopropyl)carbamoyl)pyrrolidine-1-carbonyl)benzoyl)-N^3,N^4-dibutylpyrrolidine-3,4-dicarboxamide] | –
14 | – | – | – | – | > 5000 | > 5000 | CCCCCCCCCCCCCCCCNC(=O)[C@@H]1CN(C(=O)c2ccc(C(=O)N3C[C@@H](C(=O)NCCCCCCCCCCCCCCCC)[C@H](C(=O)NCCCCCCCCCCCCCCCC)C3)cc2)C[C@H]1C(=O)NCCCCCCCCCCCCCCCC [Compound 140, (3S,3′S,4S,4′S)-1,1′-Terephthaloylbis(N^3,N^4-dihexadecylpyrrolidine-3,4-dicarboxamide)] | –
15 | – | – | – | – | > 5000 | > 5000 | CCCCCCCCCCCCCCNC(=O)[C@@H]1CN(C(=O)c2ccc(C(=O)N3C[C@@H](C(=O)NCCCCCCCCCCCCCC)[C@H](C(=O)NCCCCCCCCCCCCCC)C3)cc2)C[C@H]1C(=O)NCCCCCCCCCCCCCC [Compound 141, (3S,3′S,4S,4′S)-1,1′-Terephthaloylbis(N^3,N^4-ditetradecylpyrrolidine-3,4-dicarboxamide)] | –
16 | – | – | – | – | > 5000 | > 5000 | CCCCCCCCCCCCNC(=O)[C@@H]1CN(C(=O)c2ccc(C(=O)N3C[C@@H](C(=O)NCCCCCCCCCCCC)[C@H](C(=O)NCCCCCCCCCCCC)C3)cc2)C[C@H]1C(=O)NCCCCCCCCCCCC [Compound 142, (3S,3′S,4S,4′S)-1,1′-Terephthaloylbis(N^3,N^4-didodecylpyrrolidine-3,4-dicarboxamide)] | –
17 | – | – | – | – | > 5000 | > 5000 | CCCCCCCCCCNC(=O)[C@@H]1CN(C(=O)c2ccc(C(=O)N3C[C@@H](C(=O)NCCCCCCCCCC)[C@H](C(=O)NCCCCCCCCCC)C3)cc2)C[C@H]1C(=O)NCCCCCCCCCC [Compound 143, (3S,3′S,4S,4′S)-1,1′-Terephthaloylbis(N^3,N^4-didecylpyrrolidine-3,4-dicarboxamide)] | –
18 | – | – | – | – | > 5000 | > 5000 | CCCCCCCCNC(=O)[C@@H]1CN(C(=O)c2ccc(C(=O)N3C[C@@H](C(=O)NCCCCCCCC)[C@H](C(=O)NCCCCCCCC)C3)cc2)C[C@H]1C(=O)NCCCCCCCC [Compound 144, (3S,3′S,4S,4′S)-1,1′-Terephthaloylbis(N^3,N^4-dioctylpyrrolidine-3,4-dicarboxamide)] | –
19 | – | – | – | – | > 5000 | > 5000 | CCCCCCNC(=O)[C@@H]1CN(C(=O)c2ccc(C(=O)N3C[C@@H](C(=O)NCCCCCC)[C@H](C(=O)NCCCCCC)C3)cc2)C[C@H]1C(=O)NCCCCCC [Compound 145, (3S,3′S,4S,4′S)-1,1′-Terephthaloylbis(N^3,N^4-dihexylpyrrolidine-3,4-dicarboxamide)] | –
20 | – | – | – | – | > 5000 | > 5000 | CCCCNC(=O)[C@@H]1CN(C(=O)c2ccc(C(=O)N3C[C@@H](C(=O)NCCCC)[C@H](C(=O)NCCCC)C3)cc2)C[C@H]1C(=O)NCCCC [Compound 146, (3S,3′S,4S,4′S)-1,1′-Terephthaloylbis(N^3,N^4-dibutylpyrrolidine-3,4-dicarboxamide)] | –
